Two compounds from patent publication US20100179151A1, “TRANSDERMAL APPLICATION OF TRIAZINES FOR CONTROLLING INFECTIONS WITH COCCIDIA” (BAYER ANIMAL HEALTH GMBH, priority 2006, published 2010) can be followed below.

Several values for one entry are separate records, joined by “and”; a condition that tells them apart may be missing. Identical values can stand only once.

Holding throughout (format): in vivo
A short description of data set [1]: Serum concentrations of toltrazuril and ponazuril after pour-on application in calves. As for the experimental part: (§1) A. Determination of the Serum Concentrations of Toltrazuril and Ponazuril after Pour-On Application in Calves and Rabbits On day 0, the formulation of Example 10 was applied externally at a dose of 20 mg per kg (body weight) to in each case three calves and rabbits. At the points in time specified in the tables, the serum concentrations of toltrazuril and its metabolite ponazuril (toltrazuril sulphone) were determined.

A short description of data set [2]: Serum concentrations of toltrazuril and ponazuril after pour-on application in rabbits. The following applies: for Ponazuril in mg/l on day after the treatment (serum, metabolite of toltrazuril) / Toltrazuril in mg/l on day after the treatment (serum): individual animals 1-3. As for the experimental part:
as §1

In another data set the test system is Isospora suis. Put plainly: Activity of toltrazuril pour-on against artificially provoked infections in suckling pigs with Isospora suis. To be noted: pour-on treatment. Here is the method: B. Activity of Toltrazuril Pour-On Against Artificially Provoked Infections in Suckling Pigs with Isospora suis: 3 groups with 4 to 11 animals were formed. Group A was infected with oocysts and treated with the toltrazuril pour-on formulation of Example 10. Group B was not infected, but treated in the same manner, the dosage rate of group A and B being in each case 20 mg/kg body weight. Group C was infected with oocysts, but not treated with toltrazuril. The success of the treatment was determined by monitoring the live weight of the animals. To this end, the animals were weighed on different days, and the weight gain of the individual animals was determined The results are shown in Table 3.

Data set [3] in a line: Percutaneous absorption in pigs: detection of active substance and main metabolite in serum and body tissues. The following applies: pour-on, serum, musculature, skin, liver, kidney. An excerpt: Astonishingly, this is even the case in animal species with little hair. Animals with little hair, such as pigs, ensure the protective function of the outer integument via a thicker epidermis. It is entirely surprising that the active substance is absorbed across this thicker skin and in particular also across the stratum corneum of the skin, which is particularly thick in pigs. Moreover, the active substance can also not be taken up via the large number of hair follicles, as is in the case in other animal species with a thicker coat of hair.

For the compound `Cc1cc(-n2c(=O)[nH]c(=O)n(C)c2=O)ccc1Oc1ccc(S(=O)(=O)C(F)(F)F)cc1` [Ponazuril, ponazuril], the “Ponazuril in mg/l on day after the treatment (serum, metabolite of toltrazuril)” value was “<LoQ” in data set [1] (day 0, toltrazuril formulation of Example 10 pour-on 20 mg/kg, individual animals 1-3, LoQ 25 μg/l); 156 mg/L and 44 mg/L and 146 mg/L in data set [1] (day 1, toltrazuril formulation of Example 10 pour-on 20 mg/kg, individual animals 1-3); 9715 mg/L and 2735 mg/L and 2615 mg/L in data set [1] (day 7, toltrazuril formulation of Example 10 pour-on 20 mg/kg, individual animals 1-3); 4506 mg/L and 3440 mg/L and 1905 mg/L in data set [1] (day 13, toltrazuril formulation of Example 10 pour-on 20 mg/kg, individual animals 1-3); 1394 mg/L and 733 mg/L and 1172 mg/L in data set [1] (day 21, toltrazuril formulation of Example 10 pour-on 20 mg/kg, individual animals 1-3); 1.79 mg/l and 1.38 mg/l (2×) in data set [2] (day 1, toltrazuril formulation of Example 10 pour-on 20 mg/kg). In addition, the “Ponazuril in mg/l on day after the treatment (serum, metabolite of toltrazuril)” value in data set [2] (day 2, toltrazuril formulation of Example 10 pour-on 20 mg/kg) was 4.72 mg/L and 2.63 mg/L and 2.83 mg/L; in data set [2] (day 3, toltrazuril formulation of Example 10 pour-on 20 mg/kg) it was 5.03 mg/L and 4.07 mg/L and 3.42 mg/L.
Consider `Cc1cc(-n2c(=O)[nH]c(=O)n(C)c2=O)ccc1Oc1ccc(SC(F)(F)F)cc1` [Toltrazuril, toltrazuril], for which the “Percutaneous absorption and metabolism after pour-on application” value in data set [1] is “percutaneously absorbed, and metabolised”; in data set [2], “percutaneously absorbed, and metabolised”. The “Toltrazuril in mg/l on day after the treatment (serum)” value in data set [1] (day 0, formulation of Example 10 applied externally (pour-on) 20 mg/kg, individual animals 1-3, LoQ 25 μg/l) is “<LoQ”; in data set [1] (day 1, formulation of Example 10 pour-on 20 mg/kg, individual animals 1-3) it was 2180 mg/L and 650 mg/L and 2281 mg/L; in data set [1] (day 7, formulation of Example 10 pour-on 20 mg/kg, individual animals 1-3), 9246 mg/L and 2042 mg/L and 2275 mg/L; in data set [1] (day 13, formulation of Example 10 pour-on 20 mg/kg, individual animals 1-3), 2194 mg/L and 1806 mg/L and 702 mg/L; in data set [1] (day 21, formulation of Example 10 pour-on 20 mg/kg, individual animals 1-3), 462 mg/L and 371 mg/L and 430 mg/L; in data set [2] (day 1, formulation of Example 10 pour-on 20 mg/kg), 9.06 mg/L and 8.67 mg/L and 9.67 mg/L. The “Toltrazuril in mg/l on day after the treatment (serum)” value was 10.39 mg/L and 6.03 mg/L and 8.03 mg/L in data set [2] (day 2, formulation of Example 10 pour-on 20 mg/kg); 6.66 mg/L and 5.07 mg/L and 6.70 mg/L in data set [2] (day 3, formulation of Example 10 pour-on 20 mg/kg). Further, the “Control of massive infection with Isospora suis” value in the data set on Isospora suis is “successfully controlled”. Also, in the data set with Isospora suis, the “Elimination of oocysts (parasitological efficacy)” value is reported as “reduced elimination of oocysts”. The “Incidence of diarrhoea (clinical efficacy)” value in the data set with Isospora suis is recorded as “reduced incidence of diarrhoea”. Also, the “Weight development (clinical efficacy)” value with Isospora suis is recorded as “better weight development”. Moreover, the “Percutaneous absorption: active substance and main metabolite detected in body tissues” value in data set [3] is given as “percutaneous absorption was also demonstrated”.
